We go through 2 substances from US12371463B2, “Methods and compositions for treatment of antibiotic-resistant bacterial infections” (University of Pittsburgh—Of the Commonwealth System of …, priority 2021, dated 2025).

Assay [1] has as its system A. baumannii ATCC 17978. Description: Experimental evolution in increasing antibiotic concentrations, population survival. In kind it is cell-based. As for the experimental part: Experimental evolution: Three independent evolution experiments were conducted. The ancestor strains were propagated in a rich medium modified from M9 (“M9+”) containing 0.37 millmolar (mM) CaCl2), 8.7 mM MgSO4, 42.2 mM Na2HPO4, 22 mM KH2PO4, 21.7 mM NaCl, 18.7 mM NH4Cl and 0.2 grams per liter (g/L) glucose and supplemented with 20 milliliters per liter (mL/L) MEM essential amino acids (Gibco 11130051), 10 mL/L MEM nonessential amino acids (Gibco 11140050), and 10 mL each trace mineral solution A, B, and C (Corning 25021-3Cl).
In the first experiment, a single clone of A. baumannii ATCC 17978 and P. aeruginosa PA14 were selected and propagated independently for 24 hours in M9^+ in the absence of antibiotics. Each population was then sub-cultured into 10 replicate populations. Ten of the populations (5 planktonic and 5 biofilm) were propagated every 24 hours in increasing concentrations of WLBU2 (SEQ ID NO: 1) starting at 0.5× the minimum inhibitory concentration (MIC). The WLBU2 (SEQ ID NO: 1) was doubled after 72 hours until no population survived the treatment. As a control, the same number of strains were propagated (both planktonically and in biofilm) in the absence of antibiotics (e.g., WLBU2 (SEQ ID NO: 1)). Ten populations (5 planktonic and 5 biofilm) were propagated in increasing convention of the cationic peptide polymyxin B. […]
(§1) For identifying mechanisms of resistance to WLBU2 (SEQ ID NO: 1), laboratory strains of A. baumannii ATCC 17978 and P. aeruginosa PA14 that had no prior exposure to WLBU2 (SEQ ID NO: 1) were propagated. […] Two factors that increase the likelihood of developing resistance were determined to be: i) the mutation supply determined by population size and the mutation rate and ii) the strength of selection imposed by the antibiotic. […] In Table 2, the mean mutations per nucleotide and the cumulative probability of a mutation per nucleotide knowing the mutation rate was calculated using the length of the chromosome, the number of divisions/days, and the length of the exposure before facing inhibitory concentrations of antibiotic (WLBU2 (SEQ ID NO: 1)). […]

The subject of assay [2] is ESKAPE (Enterococcus faecium, Staphylococcus aureus, Klebsiella pneumoniae, Acinetobacter baumannii, Pseudomonas aeruginosa and Enterobacter spp.) pathogens. Conditions: in vitro and in vivo, even when protected by biofilms; cited from earlier work.
Assay [3] concerns P. aeruginosa (PA14 mutS:T114P). Put plainly: Experimental evolution with hypermutator ancestor, population survival. In kind it is cell-based. From the text: In the second experiment, 5 planktonic populations and 5 biofilm populations under the same conditions described above, and a mutator strain of P. aeruginosa (PA14 mutS:T114P), obtained from Flynn et al. (“Evolution of Ecological Diversity in Biofilms of Pseudomonas aeruginosa by Altered Cyclic Diguanylate Signaling.” J. Bacteriol., 2016, 198:2608-2618). Additionally, 3 planktonic populations and 3 biofilm populations of the hypermutant strain in the absence of antibiotic (e.g., WLBU2 (SEQ ID NO: 1)) pressure were propagated. Hypermutant strains of bacteria, such as P. aeruginosa, can develop in patients, and may be characterized as having increased mutation rates, e.g., up to 1,000-fold, as compared to wild-type bacteria, such as P. aeruginosa (see, e.g., Maciá, Maria D et al. “Hypermutation is a key factor in development of multiple-antimicrobial resistance in Pseudomonas aeruginosa strains causing chronic lung infections.” Antimicrobial agents and chemotherapy vol. 49, 8 (2005): 3382-6).
(§2) The planktonic propagations were serially passaged through 50 uL into 5 mL of M9+(dilution factor 100) which corresponds to approximately 6.66 generations per day. For the biofilm populations, a polystyrene bead (Polysciences, Inc., Warrington, PA) was transferred to fresh media containing 3 sterile beads. Each bead was rinsed in phosphate buffered saline (PBS) before the transfer to reduce the transfer planktonic cells. Each day, black and white marked beads were alternated, ensuring that the bacteria were growing on the bead for 24 hours, which corresponds to 6 to 7.5 generations/day.
Increasing mutation supply by using hypermutator strain promotes evolution resistance: A method to increase mutation supply during evolution experiments was to use an ancestral strain with a higher mutation rate. These mutator genotypes commonly evolve during chronic infections of P. aeruginosa and therefore relevant to antimicrobial resistance (AMR) evolution. […]

In assay [4] the test system is P. aeruginosa PA14. Put plainly: Experimental evolution in increasing WLBU2 concentrations (previously used protocol), population survival. In kind it is cell-based. As for the experimental part:
Experimental evolution: Three independent evolution experiments were conducted. The ancestor strains were propagated in a rich medium modified from M9 (“M9+”) containing 0.37 millmolar (mM) CaCl2), 8.7 mM MgSO4, 42.2 mM Na2HPO4, 22 mM KH2PO4, 21.7 mM NaCl, 18.7 mM NH4Cl and 0.2 grams per liter (g/L) glucose and supplemented with 20 milliliters per liter (mL/L) MEM essential amino acids (Gibco 11130051), 10 mL/L MEM nonessential amino acids (Gibco 11140050), and 10 mL each trace mineral solution A, B, and C (Corning 25021-3Cl). […]
as §1

Assay [5] deals with P. aeruginosa PA14 mutS mutator strain and populations evolved from it. Description: MIC by broth microdilution (CLSI), mutator ancestor and mutator-derived evolved populations. In kind it is cell-based. Conditions: FIG. 3A, mutS-derived populations and clones from WT ancestor, p<0.05 one-way ANOVA. How it is done:
Phenotypic characterization: antimicrobial susceptibility and aggregation assay: The MIC to WLBU2 (SEQ ID NO: 1) and polymyxin B of the whole populations and 4 clones were determined by broth microdilution according to the Clinical and Laboratory Standards Instituted guidelines (CLSI 2019), in which each bacterial sample was tested in 2-fold increasing concentrations of each antibiotic. WLBU2 (SEQ ID NO: 1) was provided by Peptilogics (Peptilogics, Pittsburgh, PA) and polymyxin B was provided by Alfa Aesar (Alfa Aesar, Wardhill, Mass.). The experiments were performed with three replicates of the antibiotics.

Assay [6] deals with P. aeruginosa PA14 resistant clones (Sm, Wr, Sc). Description: Aggregation assay of resistant clones. The format is cell-based. Conditions: presence (4 μg/ml) versus absence of WLBU2, settled 24 hours at 4° C. As for the experimental part:
To determine the aggregation ability of the 4 clones selected in the subinhibitory experiment, two replicates (R1 and R2) of each clone and the ancestral strain were grown in 5 mL of M9^+ for 24 hours at 37 degrees Celsius (° C.) in a roller drum at 200 revolutions per minute (RPM). After 24 hours, the whole culture of each clone was transferred to a 13 mm glass tube, and the tubes were allowed to settle over 24 hours at 4° C. without shaking. Replicate 1 (R1) of each clone was vortexed for 30 seconds and the optical density at 600 nanometers (OD600) was measured. From R2, 200 μl of the upper fraction was carefully taken without vortexing and the OD600 was measured. The aggregation percentage was estimated as […]. This experiment was performed with five replicates both in the absence and presence (4 μg/ml) of WLBU2 (SEQ ID NO: 1).

Assay [7] relates to wild-type P. aeruginosa PA14. Put plainly: Experimental evolution with extended subinhibitory exposure, population survival. In kind it is cell-based. How it is done: In the third experiment, 5 planktonic populations of the non-hypermutant laboratorial strain P. aeruginosa PA14 were propagated under subinhibitory concentrations of WLBU2 (SEQ ID NO: 1) for 10 days. The populations that survived the treatment with 1×MIC of WLBU2 (SEQ ID NO: 1) were propagated for 2 days.
as §2
Five planktonic populations of wild-type P. aeruginosa PA14 was propagated for 10 days under subinhibitory concentrations of WLBU2 (SEQ ID NO: 1), followed by 2 days at inhibitory concentrations. It was estimated the probability that any given nucleotide would be mutated during this regime was 0.74, with mean mutations per site of 1.52. […] Different colony morphologies were also detected within each population at the end of the experiment. […]

Assay [8] concerns P. aeruginosa and S. aureus biofilms. As to conditions: cited from earlier work.
Where [9] appears, read: five mutator populations per lifestyle.
[10] abbreviates: planktonic and biofilm, 3 days at 0.5x MIC before the MIC.

Ends that are not written are not given here.

For polymyxin B, the “biofilm populations that survived in 4-times the MIC” value in assay [1] (biofilm lifestyle, increasing concentrations over 12 days) is on record as “four out of the five”. For the same substance, the “planktonic populations that survived in 4-times the MIC” value in assay [1] (planktonic lifestyle, 5 populations, increasing concentrations over 12 days) is listed as “all”.

As for RRWVRRVRRVWRRVVRVVRRWVRR [WLBU2], the “effectiveness against ESKAPE pathogens” value in assay [2] is on record as “highly effective”. Further, the “biofilm populations that survived the treatment” value in assay [3] (setting [9]) was “three”. Also, the “planktonic populations that survived the treatment” value in assay [3] (setting [9]) is reported as “Two”. In addition, the “Populations that survived entire experiment (%)” value in assay [3] (hypermutator ancestor PA14 mutS: T114P, 3 days before inhibitory concentrations) is 50%; in assay [4] (previously used protocol, strain PA14, 3 days before inhibitory concentrations), 0%; in assay [7] (extended subinhibitory exposure, strain PA14, 10 days subinhibitory then 2 days inhibitory), 40%. Moreover, the “populations that survived exposure of the MIC” value in assay [4] (setting [10]) and in assay [1] (setting [10]) was “no populations” throughout. The “resistance level (MIC) of evolved populations versus WT” value in assay [5] was “significantly exceeded WT resistance”. Besides, the “aggregation of Sm colonies relative to WT” value in assay [6] is “only clustered more in the presence of the peptide”. Also, in assay [7] (five planktonic populations, 10 days subinhibitory then 2 days inhibitory), the “populations that survived the prolonged subinhibitory treatment” value was “two”. In assay [8], the activity against biofilms entry was “high activity”.
